Measurements taken from the supplement of paper PMC10307832.

Experiments:
Assay in all cases: relative viability (nuclei count vs DMSO), 5 days (fraction); higher = more cells survive
Tozasertib + Lapatinib = compound: Cc1cc(Nc2cc(N3CCN(C)CC3)nc(Sc3ccc(NC(=O)C4CC4)cc3)n2)n[nH]1 [Tozasertib] + CS(=O)(=O)CCNCc1ccc(-c2ccc3ncnc(Nc4ccc(OCc5cccc(F)c5)c(Cl)c4)c3c2)o1 [Lapatinib] (partner 2 µM)
Procedure, shortened: (§1)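 Each reported value is a median over duplicate plates. It expresses relative viability: treated-well nuclei count divided by vehicle-well nuclei count. Lung cancer cell lines in 1536-well plates were dosed by pin tool a day after seeding, alone with one drug or with a fixed anchor-drug dose plus five library-drug doses (not always all listed) in √10 steps, and nuclei were counted after 5 days.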

Tozasertib + AZD7762 = compound: Cc1cc(Nc2cc(N3CCN(C)CC3)nc(Sc3ccc(NC(=O)C4CC4)cc3)n2)n[nH]1 [Tozasertib] + NC(=O)Nc1cc(-c2cccc(F)c2)sc1C(=O)N[C@H]1CCCNC1 [AZD7762] (partner 0.2 µM)
Procedure, shortened: as §1

Tozasertib + Palbociclib = compound: Cc1cc(Nc2cc(N3CCN(C)CC3)nc(Sc3ccc(NC(=O)C4CC4)cc3)n2)n[nH]1 [Tozasertib] + CC(=O)c1c(C)c2cnc(Nc3ccc(N4CCNCC4)cn3)nc2n(C2CCCC2)c1=O [Palbociclib] (partner 0.5 µM)
Procedure, shortened: as §1

Tozasertib + Pemetrexed = compound: Cc1cc(Nc2cc(N3CCN(C)CC3)nc(Sc3ccc(NC(=O)C4CC4)cc3)n2)n[nH]1 [Tozasertib] + Nc1nc2[nH]cc(CCc3ccc(C(=O)N[C@@H](CCC(=O)O)C(=O)O)cc3)c2c(=O)[nH]1 [Pemetrexed] (partner 0.2 µM)
Procedure, shortened: as §1

Row | Cell Line | relative viability (Tozasertib + Lapatinib; first compound 0.004 µM) | relative viability (Tozasertib + Lapatinib; first compound 0.01265 µM) | relative viability (Tozasertib + Lapatinib; first compound 0.04 µM) | relative viability (Tozasertib + Lapatinib; first compound 0.1265 µM) | relative viability (Tozasertib + AZD7762; first compound 0.004 µM) | relative viability (Tozasertib + AZD7762; first compound 0.01265 µM) | relative viability (Tozasertib + AZD7762; first compound 0.04 µM) | relative viability (Tozasertib + AZD7762; first compound 0.1265 µM) | relative viability (Tozasertib + Palbociclib; first compound 0.004 µM) | relative viability (Tozasertib + Palbociclib; first compound 0.01265 µM) | relative viability (Tozasertib + Palbociclib; first compound 0.04 µM) | relative viability (Tozasertib + Palbociclib; first compound 0.1265 µM) | relative viability (Tozasertib + Pemetrexed; first compound 0.004 µM) | relative viability (Tozasertib + Pemetrexed; first compound 0.01265 µM) | relative viability (Tozasertib + Pemetrexed; first compound 0.04 µM) | relative viability (Tozasertib + Pemetrexed; first compound 0.1265 µM)
1 | HOP-62 | 1.06 | 0.999 | 0.856 | 0.943 | 0.505 | 0.485 | 0.613 | 0.289 | 0.53 | 0.483 | 0.556 | 0.439 | 0.396 | 0.299 | 0.32 | 0.362
2 | LC-2-ad | 1.01 | 0.884 | 0.97 | 0.509 | 0.868 | 0.763 | 0.915 | 0.731 | 0.503 | 0.529 | 0.442 | 0.477 | 0.291 | 0.252 | 0.265 | 0.275
3 | LCLC-97TM1 | – | 0.884 | 1.04 | 0.592 | 0.166 | 0.194 | 0.164 | 0.211 | 0.232 | 0.223 | 0.222 | 0.21 | 0.191 | 0.157 | 0.15 | 0.18
4 | LCLC-103H | – | – | – | – | 0.724 | 0.842 | 0.846 | 0.732 | 0.481 | 0.45 | 0.502 | 0.52 | 0.482 | 0.46 | 0.444 | 0.45
5 | NCI-H441 | – | – | – | – | 1.61 | 0.989 | 1.17 | 1.08 | 0.222 | 0.186 | 0.213 | 0.203 | 0.264 | 0.235 | 0.251 | 0.237
6 | NCI-H520 | 0.868 | 0.816 | 0.775 | 0.214 | – | – | – | – | 0.231 | 0.228 | 0.231 | 0.173 | 0.743 | 0.789 | 0.633 | 0.413
7 | NCI-H522 | – | – | – | – | – | 0.841 | 0.772 | 0.47 | 1.03 | 1.02 | 1.06 | 0.749 | 0.931 | 1.16 | 0.927 | 0.837
8 | NCI-H596 | 1.17 | 1.07 | 1.11 | 0.49 | – | – | 1.2 | 0.871 | – | – | – | – | 0.549 | 0.477 | – | 0.473
9 | NCI-H661 | 0.581 | – | 0.427 | 0.376 | – | – | – | – | 0.412 | 0.406 | 0.425 | 0.299 | 1.01 | 0.833 | 0.933 | 0.561
10 | NCI-H727 | 0.959 | – | 0.942 | 0.442 | 0.446 | 0.481 | 0.716 | 0.455 | 0.554 | 0.573 | 0.629 | 0.563 | – | – | – | –
11 | NCI-H1650 | 0.914 | 0.712 | 0.879 | 0.168 | – | – | – | – | 0.328 | 0.287 | 0.365 | 0.207 | 0.334 | 0.374 | 0.381 | 0.385
12 | NCI-H1703 | 1.4 | 0.918 | 1.11 | 0.301 | 0.0927 | – | 0.126 | 0.12 | – | – | – | – | – | – | – | –
13 | NCI-H2009 | 1.01 | 0.512 | 0.885 | 0.361 | – | – | – | – | 0.254 | 0.201 | 0.247 | 0.164 | 1 | 1.03 | 0.985 | 0.986
14 | NCI-H2023 | 0.796 | 1.01 | 0.947 | 0.123 | – | – | – | – | 0.409 | 0.384 | 0.417 | 0.243 | 0.239 | 0.241 | 0.246 | 0.213
15 | NCI-H2228 | 0.958 | – | 0.765 | 0.336 | – | – | – | – | 0.994 | 0.764 | 0.671 | 0.453 | 0.319 | 0.32 | 0.376 | 0.322
16 | NCI-H2342 | – | – | – | – | 0.578 | 0.532 | 0.514 | 0.398 | 0.491 | 0.511 | 0.476 | 0.531 | 0.809 | 0.778 | 0.744 | 0.759
17 | SK-LU-1 | 1.25 | 1.06 | 1.08 | 0.651 | – | – | – | – | 0.428 | 0.414 | 0.476 | 0.469 | 1.05 | 0.961 | 1.09 | 0.964
18 | SK-MES-1 | 0.477 | 0.468 | 0.514 | 0.438 | – | – | – | – | 0.317 | 0.32 | 0.364 | 0.38 | 0.907 | 0.892 | 1.02 | 0.769
19 | SW 900 | – | – | – | – | 0.485 | 0.72 | 0.622 | 0.467 | 0.62 | 0.536 | 0.542 | 0.382 | 0.516 | – | 0.498 | 0.408
20 | SW 1573 | 1.03 | 1.23 | 1.21 | 1.05 | – | – | – | – | 0.455 | 0.355 | 0.284 | 0.151 | 0.793 | 0.796 | 0.848 | 0.212
21 | UMC-11 | 1.03 | 0.944 | 1.04 | 0.244 | – | – | – | – | 0.345 | 0.317 | 0.356 | 0.248 | 0.852 | 0.809 | 0.78 | 0.26
